Data from patent US20100179118A1, “CYCLIC AMINOALKYLCARBOXAMIDE DERIVATIVE” (DAINIPPON SUMITOMO PHARMA CO., LTD., priority 2006, published 2010).

What was measured:
[1] = system: TMA (trimellitic anhydride) repetitive application dermatitis model; assay: Suppressive action on TMA (trimellitic anhydride) repetitive application dermatitis model; format: in vivo, mice; details: for inhibition in vivo at 20 mg/kg: Mus musculus, 8 h, oral twice (30 min before and 4 hr after induction), ear thickness vs solvent control, male BALB/c mice, read-out: right ear suppression (%) at 8 hr after final induction
[2] = system: BN rat DNCB repetitive application dermatitis model; assay: Suppressive action on BN rat DNCB repetitive application dermatitis model; format: in vivo; details: dose 2 mg/kg, oral once a day; AUC of ear thickness increase vs solvent control; male BN rat
Procedure: Suppressive Action on BN Rat DNCB Repetitive Application Dermatitis Model
A 8-week-old male rat was sensitized by applying 30 μL of 1.5 wt % solution of dinitrochlorobenzene (DNCB) dissolved in acetone:olive oil=4:1 solution to the right ear on day 1 and 3 days later. Starting from one week thereafter, the same solution was consecutively applied to the right ear every other day in total of 6 times, whereby chronic dermatitis was induced in which the skin thickness increases with time. As for the level of dermatitis, the thickness was measured with a dial gauge thickness before application of the solution, and expressed by the difference from the measured thickness of the right ear immediately before induction on day 1 of the induction. The drug was suspended in 0.5 wt % tragacanth, and orally administered once a day immediately before induction on day 1 of the induction and after 24 hr value measurement the next day. The changes in the ear tumentia with time were monitored, and the area under the curve in a graph showing the values up to 48 hr after the final induction was calculated, from which the percent suppression relative to the area of the solvent control group was determined. As a comparison control compound, prednisolone, which is a steroid, was used.

O=C(O)c1cccc(N(C(=O)CN2CCCC2)C2CCN(C(=O)c3ccc(C(F)(F)F)cc3)CC2)c1 [Example 227, N-(3-carboxylphenyl)-2-(pyrrolidin-1-yl)-N-[1-(4-trifluoromethylbenzoyl)piperidin-4-yl]acetamide]
right ear suppression (%) at 8 hr after final induction ([1]; mouse, in vivo, po, 80 mg/kg): 57.2%

C[C@]12C=CC(=O)C=C1CC[C@@H]1[C@@H]2[C@@H](O)C[C@@]2(C)[C@H]1CC[C@]2(O)C(=O)CO [prednisolone, reference compound]
inhibition in vivo at 20 mg/kg [1]: 67.8% | suppression (%) at 48 hr after final induction [2]: 44.0%

O=C(c1ccc(Cl)cc1)N1CCC(N(C(=O)CN2CCOCC2)C2CCCCC2)CC1 [Example 65, N-[1-(4-chlorobenzoyl)piperidin-4-yl]-N-cyclohexyl-2-(morpholin-4-yl)acetamide]
inhibition in vivo at 20 mg/kg [1]: 41% | suppression (%) at 48 hr after final induction [2]: 20.5%
